Measurements reported in article PMC6325200, “Effects of Microplate Type and Broth Additives on Microdilution MIC Susceptibility Assays” (Antimicrobial Agents and Chemotherapy, 2018).
Values after ≈ are worked out from the molar mass of the structure shown.

Legend:
[1] = test system: E. coli ATCC 25922; test: microbe, parasite or virus in culture; conditions: Escherichia coli, n = 2
Summary of the method: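 Broth microdilution with 2-fold serial compound dilutions in MH broth, using cultures diluted 40-fold and grown at 37°C for 2 to 3 h, with or without Tween. Variants included 2% beractant added to mid-log cultures, or 50% human serum in MHB.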

[2] = test system: E. faecalis ATCC 29212; test: microbe, parasite or virus in culture; conditions: Enterococcus faecalis, n = 2
Summary of the method: (§1)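 Compounds and standard antibiotics were serially diluted 2-fold across 96-well plates. Cultures were diluted 40-fold in fresh MH broth, with and without Tween, and incubated at 37°C for 2 to 3 h. Each plate carried a bacteria-only row and a medium-only control.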

[3] = test system: MSSA S. aureus ATCC 25923; test: microbe, parasite or virus in culture; conditions: Staphylococcus aureus, n = 2
Summary of the method: as §1

[4] = test system: P. aeruginosa ATCC 10145; test: microbe, parasite or virus in culture; conditions: Pseudomonas aeruginosa, n = 2
Summary of the method: as §1

[5] = test system: S. aureus GISA NRS 2; ATCC 700698; test: microbe, parasite or virus in culture; conditions: Staphylococcus aureus, n = 2
Summary of the method: as §1

[6] = test system: S. pneumoniae ATCC 33440; test: microbe, parasite or virus in culture; conditions: Streptococcus pneumoniae, n = 2
Summary of the method: as §1

[7] = test system: S. pneumoniae ATCC 700677 (MDR); test: microbe, parasite or virus in culture; conditions: Streptococcus pneumoniae, ATCC700677
Summary of the method: as §1

[8] = test system: MRSA; conditions: literature value; cited from earlier work
Description: TABLE 1 Literature MIC values for tested antibiotics | column: MIC (µg/ml) (reference[s]) / MRSA

[9] = test system: E. coli; conditions: literature value; cited from earlier work

Question: With `O=C(O)c1cn(C2CC2)c2cc(N3CCNCC3)c(F)cc2c1=O` [Ciprofloxacin, ciprofloxacin] as the compound, how does the MIC ([1]; ATCC25922, 24 h, Corning NBS, MH + 2% LHB, 2% LS) read?
Answer: 0.03 to 0.06 µg/mL

Question: What about the MIC ([1]; ATCC25922, 24 h, Corning NBS, MH + 2% LHB, 50% HS) of the same compound?
Answer: ≤ 0.03 µg/mL

Question: What about the MIC ([1]; ATCC25922, 24 h, Corning NBS, MH + 2% LHB, no additive) of the same compound?
Answer: ≤ 0.03 µg/mL

Question: What about the MIC ([1]; ATCC25922, 24 h, Corning NBS, MH + T80, 2% LS) of the same compound?
Answer: ≤ 0.03 µg/mL

Question: And the MIC ([1]; ATCC25922, 24 h, Corning NBS, MH + T80, 50% HS)?
Answer: ≤ 0.03 µg/mL

Question: What about the MIC ([1]; ATCC25922, 24 h, Corning PS, MH + 2% LHB, 2% LS) of the same compound?
Answer: ≤ 0.03 µg/mL

Question: And the MIC ([1]; ATCC25922, 24 h, Corning PS, MH + 2% LHB, 50% HS)?
Answer: ≤ 0.03 µg/mL

Question: What about the MIC ([1]; ATCC25922, 24 h, Corning PS, MH + 2% LHB, no additive) of the same compound?
Answer: ≤ 0.03 µg/mL

Question: And the MIC ([1]; ATCC25922, 24 h, Corning PS, MH + T80, 2% LS)?
Answer: ≤ 0.03 µg/mL

Question: And the MIC ([1]; ATCC25922, 24 h, Corning PS, MH + T80, 50% HS)?
Answer: ≤ 0.03 µg/mL

Question: What about the MIC ([1]; ATCC25922, 24 h, Corning TC, MH + 2% LHB, 2% LS) of the same compound?
Answer: ≤ 0.03 µg/mL

Question: And the MIC ([1]; ATCC25922, 24 h, Corning TC, MH + 2% LHB, 50% HS)?
Answer: ≤ 0.03 µg/mL

Question: And the MIC ([1]; ATCC25922, 24 h, Corning TC, MH + 2% LHB, no additive)?
Answer: ≤ 0.03 µg/mL

Question: And the MIC ([1]; ATCC25922, 24 h, Corning TC, MH + T80, 2% LS)?
Answer: ≤ 0.03 µg/mL

Question: And the MIC ([1]; ATCC25922, 24 h, Corning TC, MH + T80, 50% HS)?
Answer: ≤ 0.03 µg/mL

Question: What about the MIC ([1]; ATCC25922, 24 h, Trek PS, MH + 2% LHB, 2% LS) of the same compound?
Answer: ≤ 0.03 µg/mL

Question: What about the MIC ([1]; ATCC25922, 24 h, Trek PS, MH + 2% LHB, 50% HS) of the same compound?
Answer: ≤ 0.03 µg/mL

Question: What about the MIC ([1]; ATCC25922, 24 h, Trek PS, MH + 2% LHB, no additive) of the same compound?
Answer: 0.03 to 0.06 µg/mL

Question: What about the MIC ([1]; ATCC25922, 24 h, Trek PS, MH + T80, 2% LS) of the same compound?
Answer: ≤ 0.03 µg/mL

Question: What about the MIC ([1]; ATCC25922, 24 h, Trek PS, MH + T80, 50% HS) of the same compound?
Answer: ≤ 0.03 µg/mL

Question: What about the MIC ([1]; ATCC25922, Corning NBS plate, MHB +0.002% T80, no further additive) of the same compound?
Answer: ≤ 0.03 µg/mL

Question: And the MIC ([1]; ATCC25922, Corning NBS plate, MHB −T80, no additive)?
Answer: ≤ 0.03 µg/mL

Question: And the MIC ([1]; ATCC25922, Corning NBS, MH, 2% LS)?
Answer: ≤ 0.03 µg/mL

Question: And the MIC ([1]; ATCC25922, Corning NBS, MH, 50% HS)?
Answer: ≤ 0.03 µg/mL

Question: And the MIC ([1]; ATCC25922, Corning PS plate, MHB +0.002% T80, no further additive)?
Answer: ≤ 0.03 µg/mL

Question: And the MIC ([1]; ATCC25922, Corning PS plate, MHB −T80, no additive)?
Answer: ≤ 0.03 µg/mL

Question: What about the MIC ([1]; ATCC25922, Corning PS, MH, 2% LS) of the same compound?
Answer: ≤ 0.03 µg/mL

Question: What about the MIC ([1]; ATCC25922, Corning PS, MH, 50% HS) of the same compound?
Answer: ≤ 0.03 µg/mL

Question: What about the MIC ([1]; ATCC25922, Corning TC plate, MHB +0.002% T80, no further additive) of the same compound?
Answer: ≤ 0.03 µg/mL

Question: What about the MIC ([1]; ATCC25922, Corning TC plate, MHB −T80, no additive) of the same compound?
Answer: ≤ 0.03 µg/mL

Question: What about the MIC ([1]; ATCC25922, Corning TC, MH, 2% LS) of the same compound?
Answer: ≤ 0.03 µg/mL

Question: What about the MIC ([1]; ATCC25922, Corning TC, MH, 50% HS) of the same compound?
Answer: ≤ 0.03 µg/mL

Question: What about the MIC ([1]; ATCC25922, Nunc PS plate, MHB −T80) of the same compound?
Answer: ≤ 0.03 µg/mL

Question: What about the MIC ([1]; ATCC25922, Nunc U TC plate, MHB +0.002% T80) of the same compound?
Answer: ≤ 0.03 µg/mL

Question: What about the MIC ([1]; ATCC25922, Nunc U TC plate, MHB −T80) of the same compound?
Answer: ≤ 0.03 µg/mL

Question: What about the MIC ([1]; ATCC25922, Nunc flat TC plate, MHB +0.002% T80) of the same compound?
Answer: ≤ 0.03 µg/mL

Question: What about the MIC ([1]; ATCC25922, Nunc flat TC plate, MHB −T80) of the same compound?
Answer: ≤ 0.03 µg/mL

Question: And the MIC ([1]; ATCC25922, Trek PS plate, MHB +0.002% T80, no further additive)?
Answer: ≤ 0.03 µg/mL

Question: And the MIC ([1]; ATCC25922, Trek PS plate, MHB −T80, no additive)?
Answer: ≤ 0.03 µg/mL

Question: What about the MIC ([1]; ATCC25922, Trek PS, MH, 2% LS) of the same compound?
Answer: ≤ 0.03 µg/mL

Question: What about the MIC ([1]; ATCC25922, Trek PS, MH, 50% HS) of the same compound?
Answer: ≤ 0.03 µg/mL

Question: What about the MIC ([2]; ATCC29212, Corning NBS, MHB +T80) of the same compound?
Answer: 2 µg/mL (≈ 6.04 µM)

Question: And the MIC ([2]; ATCC29212, Corning NBS, MHB -T80)?
Answer: 2 µg/mL (≈ 6.04 µM)

Question: And the MIC ([2]; ATCC29212, Corning TC, MHB +T80)?
Answer: 0.5 to 1 µg/mL (≈ 1.51 to 3.02 µM)

Question: What about the MIC ([2]; ATCC29212, Corning TC, MHB -T80) of the same compound?
Answer: 0.25 µg/mL (≈ 0.754 µM)

Question: And the MIC ([3]; Corning NBS, MHB +T80)?
Answer: 0.5 to 1 µg/mL (≈ 1.51 to 3.02 µM)

Question: And the MIC ([3]; Corning PS, MHB +T80)?
Answer: 0.5 µg/mL (≈ 1.51 µM)

Question: What about the MIC ([3]; Corning PS, MHB -T80) of the same compound?
Answer: 0.25 to 0.5 µg/mL (≈ 0.754 to 1.51 µM)

Question: What about the MIC ([3]; Corning TC, MHB +T80) of the same compound?
Answer: 0.5 to 1 µg/mL (≈ 1.51 to 3.02 µM)

Question: What about the MIC ([4]; ATCC10145, Corning PS, MHB +T80) of the same compound?
Answer: 0.25 to 0.5 µg/mL (≈ 0.754 to 1.51 µM)

Question: What about the MIC ([4]; ATCC10145, Corning TC, MHB +T80) of the same compound?
Answer: 0.25 to 0.5 µg/mL (≈ 0.754 to 1.51 µM)

Question: What about the MIC ([4]; ATCC10145, Corning TC, MHB -T80) of the same compound?
Answer: ≤ 0.03 µg/mL

Question: What about the MIC ([5]; Corning NBS, MHB +T80) of the same compound?
Answer: 64 µg/mL (≈ 193 µM)

Question: What about the MIC ([5]; Corning NBS, MHB -T80) of the same compound?
Answer: 64 µg/mL (≈ 193 µM)

Question: What about the MIC ([5]; Corning PS, MHB +T80) of the same compound?
Answer: 64 µg/mL (≈ 193 µM)

Question: What about the MIC ([5]; Corning TC, MHB +T80) of the same compound?
Answer: 64 µg/mL (≈ 193 µM)

Question: What about the MIC ([5]; Corning TC, MHB -T80) of the same compound?
Answer: 32 to 64 µg/mL (≈ 96.6 to 193 µM)

Question: What about the MIC ([6]; ATCC33440, Corning NBS, MHB +T80) of the same compound?
Answer: 0.25 to 1 µg/mL (≈ 0.754 to 3.02 µM)

Question: And the MIC ([6]; ATCC33440, Corning PS, MHB -T80)?
Answer: 0.25 to 0.5 µg/mL (≈ 0.754 to 1.51 µM)

Question: What about the MIC ([6]; ATCC33440, Corning TC, MHB +T80) of the same compound?
Answer: 0.25 to 0.5 µg/mL (≈ 0.754 to 1.51 µM)

Question: And the MIC ([6]; ATCC33440, Corning TC, MHB -T80)?
Answer: 0.25 to 0.5 µg/mL (≈ 0.754 to 1.51 µM)

Question: And the MIC [7]?
Answer: 0.5 to 1 µg/mL (≈ 1.51 to 3.02 µM)

Question: And the “MIC (literature)” value [8]?
Answer: 0.5 ([63]) µg/ml

Question: And the “MIC (literature)” value [9]?
Answer: 0.03–0.06 ([64], [65]) µg/ml
